The values below come from patent publication US12637513B2, “Method of treating cancer by administering an inhibitor of erythropoietin receptor activity comprising either erythropoietin receptor or erythropoietin protein” (ImmunEdge, Inc., priority 2022, dated 2026).

Where a chain is given by its changes, count along the chain named. Read-outs that look alike come from different tables or passages of the source.

One test concerns PHD. The settings on record: cited from earlier work.
Another test concerns the target HIF-2a (Homo sapiens, UniProt Q99814). The settings on record: target HIF-2a; cited from earlier work.
A further test concerns the target HIF-1a (Homo sapiens, UniProt Q16665). The settings on record: cited from earlier work.
The target of test [1] is T1, EPO/EPOR interaction (EPOR-CD131-Fc and EPO) (Homo sapiens, UniProt P19235+P32927).
T1 construct: Chimeric Fc fusion proteins of the extracellular domains of human EPOR and human CD131; purchased Sino Biological CT010-H02H
T1 sequence (P19235 25-250 limits assumed): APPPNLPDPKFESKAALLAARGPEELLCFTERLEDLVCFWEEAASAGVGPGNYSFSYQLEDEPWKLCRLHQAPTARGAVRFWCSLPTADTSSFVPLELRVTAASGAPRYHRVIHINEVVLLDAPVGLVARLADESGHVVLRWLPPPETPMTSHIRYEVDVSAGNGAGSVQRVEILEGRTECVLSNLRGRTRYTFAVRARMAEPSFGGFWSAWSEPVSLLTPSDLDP
T1 sequence (P32927 17-443 limits assumed): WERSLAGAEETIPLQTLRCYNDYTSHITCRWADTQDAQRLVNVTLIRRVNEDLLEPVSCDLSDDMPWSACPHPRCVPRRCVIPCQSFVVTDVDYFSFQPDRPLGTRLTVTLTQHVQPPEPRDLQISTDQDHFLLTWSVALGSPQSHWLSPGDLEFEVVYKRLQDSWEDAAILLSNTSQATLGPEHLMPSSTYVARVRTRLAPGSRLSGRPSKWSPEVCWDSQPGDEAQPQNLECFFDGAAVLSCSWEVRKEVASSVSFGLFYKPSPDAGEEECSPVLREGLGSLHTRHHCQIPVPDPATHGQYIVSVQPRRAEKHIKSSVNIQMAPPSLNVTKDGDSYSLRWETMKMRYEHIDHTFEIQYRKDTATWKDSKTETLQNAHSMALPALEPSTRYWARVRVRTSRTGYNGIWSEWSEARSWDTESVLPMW
Description: Octet blocking of the EPO/EPOR interaction by hybridoma supernatants. The class given is binding. The settings on record: EPO 10 nM. Background: Biolayer interferometry detects binding as a change in optical thickness at a sensor tip.

Sequence of HIF-2a (Q99814 whole entry): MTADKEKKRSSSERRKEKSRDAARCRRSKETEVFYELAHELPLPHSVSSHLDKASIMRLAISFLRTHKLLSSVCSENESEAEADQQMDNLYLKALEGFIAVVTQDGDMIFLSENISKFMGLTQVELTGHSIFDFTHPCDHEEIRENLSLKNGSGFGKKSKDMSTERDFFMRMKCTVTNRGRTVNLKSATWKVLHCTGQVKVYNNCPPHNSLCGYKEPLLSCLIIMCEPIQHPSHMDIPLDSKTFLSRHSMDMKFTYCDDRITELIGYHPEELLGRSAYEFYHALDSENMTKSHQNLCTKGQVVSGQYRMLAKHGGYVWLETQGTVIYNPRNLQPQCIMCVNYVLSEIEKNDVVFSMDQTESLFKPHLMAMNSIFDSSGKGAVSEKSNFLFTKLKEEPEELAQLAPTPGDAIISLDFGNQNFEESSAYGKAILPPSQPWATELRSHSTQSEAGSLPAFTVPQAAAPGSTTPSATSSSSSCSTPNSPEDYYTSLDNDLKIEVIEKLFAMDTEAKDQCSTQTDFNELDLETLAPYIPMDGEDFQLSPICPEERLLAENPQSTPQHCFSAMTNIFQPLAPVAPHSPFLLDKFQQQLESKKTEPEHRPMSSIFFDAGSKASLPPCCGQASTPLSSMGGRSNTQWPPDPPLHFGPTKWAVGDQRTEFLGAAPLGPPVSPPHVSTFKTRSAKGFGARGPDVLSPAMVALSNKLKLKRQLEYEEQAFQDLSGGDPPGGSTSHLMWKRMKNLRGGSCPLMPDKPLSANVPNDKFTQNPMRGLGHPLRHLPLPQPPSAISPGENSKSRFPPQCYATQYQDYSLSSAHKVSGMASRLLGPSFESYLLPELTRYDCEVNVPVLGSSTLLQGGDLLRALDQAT
Sequence of HIF-1a (Q16665 whole entry): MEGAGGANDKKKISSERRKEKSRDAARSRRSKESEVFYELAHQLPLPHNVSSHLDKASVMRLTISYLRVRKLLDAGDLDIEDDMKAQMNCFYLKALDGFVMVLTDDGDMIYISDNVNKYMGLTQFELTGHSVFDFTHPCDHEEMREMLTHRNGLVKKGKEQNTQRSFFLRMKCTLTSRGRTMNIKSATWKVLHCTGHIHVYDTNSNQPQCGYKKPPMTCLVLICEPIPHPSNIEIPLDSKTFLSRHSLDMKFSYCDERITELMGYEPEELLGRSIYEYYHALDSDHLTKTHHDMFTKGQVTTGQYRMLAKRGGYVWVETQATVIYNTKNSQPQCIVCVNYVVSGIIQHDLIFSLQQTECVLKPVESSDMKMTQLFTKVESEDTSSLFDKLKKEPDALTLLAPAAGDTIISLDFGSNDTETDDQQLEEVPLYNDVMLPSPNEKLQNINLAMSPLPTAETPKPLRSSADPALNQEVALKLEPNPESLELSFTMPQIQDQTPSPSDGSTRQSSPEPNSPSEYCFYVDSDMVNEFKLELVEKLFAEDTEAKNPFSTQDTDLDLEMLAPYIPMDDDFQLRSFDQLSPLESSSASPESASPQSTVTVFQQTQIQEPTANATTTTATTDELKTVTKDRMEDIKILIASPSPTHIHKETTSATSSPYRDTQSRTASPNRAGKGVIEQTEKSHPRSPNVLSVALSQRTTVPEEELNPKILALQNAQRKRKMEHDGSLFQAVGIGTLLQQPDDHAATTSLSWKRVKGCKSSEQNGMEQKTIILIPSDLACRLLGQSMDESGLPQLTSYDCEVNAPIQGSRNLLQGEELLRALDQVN

Turning to `O=C(O)CNC(=O)c1ncc(-c2cn(CCCc3ccc(Cl)cc3)nn2)cc1O` [Prolyl Hydroxylase inhibitor 1], the IC50 (usually the point on the concentration scale where inhibition reaches its midpoint) in the test with PHD (target PHD) is 62.2 nM.

As to `O=[N+]([O-])c1c(Nc2cc(F)cc(Cl)c2)ccc2nonc12` [TC-S 700], at HIF-2a, the IC50 was 81 nM.

Take `COC(=O)c1ccc(O)c(NC(=O)COc2ccc(C34CC5CC(CC(C5)C3)C4)cc2)c1` [CAY10585 (LW6)]: the IC50 at HIF-1a (read-out: IC50) was 700 to 2600 nM.

As for `O=[N+]([O-])c1cc(Nc2ccc3nonc3c2[N+](=O)[O-])ccc1Cl` [HIF-2α-IN-3], on HIF-2a, the IC50 was 400 nM.

As for `COC(=O)c1sccc1N/N=C(\C#N)S(C)(=O)=O` [HIF-2α-IN-4], on HIF-2a, the IC50 is 5000 nM.

As for `CN1C(=O)[C@]2(Cc3cn([C@]45C[C@@]67SS[C@@](CO)(C(=O)N6[C@H]4Nc4ccccc45)N(C)C7=O)c4ccccc34)SS[C@@]1(CO)C(=O)N2C` [Chetomin], the IC50 at HIF-1a (target HIF-1a, read-out: IC50) is 10 nM.

Consider `Cc1ccc(C(=O)COC(=O)c2cccc(NC(=O)c3ccc([N+](=O)[O-])cc3[N+](=O)[O-])c2)cc1` [FM19G11], for which the IC50 at HIF-1a (target HIF-1a) was 80 nM.

For `c1ccc(-c2ccc(CNc3nc(-c4ccccn4)nnc3-c3ccccc3)cc2)cc1` [ML228], the IC50 with PHD (target cell empty) is 1000 nM.

With `CC[C@@H](C)C[C@H](C)C[C@H](C)/C=C(\C)[C@H]1OC(O)([C@](C)(O)C(=O)N[C@@H]2C(=O)N3NCCC[C@@H]3C(=O)N(O)CC(=O)N(C)CC(=O)NCC(=O)N(C)CC(=O)O[C@H]2C(C)C)CC[C@@H]1OC` (stereo partly shown) [Verucopeptin], on HIF-1a (target HIF-1a, read-out: IC50), the IC50 is 220 nM.

Consider `O=S(=O)(NCCSSCCNS(=O)(=O)c1cc(Cl)ccc1Cl)c1cc(Cl)ccc1Cl` [KC7F2], for which the IC50 at HIF-1a (target HIF-1a, read-out: IC50) is 20000 nM.

On to `O=c1c(-n2ccnn2)c[nH]n1-c1cc(N2CCOCC2)ncn1` [Molidustat], for which the 50% inhibitory concentration (IC50) in the test with PHD (target PHD) is 450 nM.

For `CS[C@H]1SC[C@H]2C(=O)N(C)[C@@H](C(C)C)C(=O)OC[C@@H](NC(=O)c3cnc4ccccc4n3)C(=O)N[C@@H](C)C(=O)N(C)[C@@H]1C(=O)N(C)[C@@H](C(C)C)C(=O)OC[C@@H](NC(=O)c1cnc3ccccc3n1)C(=O)N[C@@H](C)C(=O)N2C` [Echinomycin], the IC50 at HIF-1a (target HIF-1a, read-out: IC50) is 1.2 nM.

B1: EPORab - M54: hybridoma antibody clone, VH/VK in Table 10 (antibody, V domains shown)
VH: QLQLQESGPGLVKPSETLSLTCSVSGGSISSSGYYWGWIRQPPGKGLDWIGTIYYSGNTNYNPSLNSRVTISVDTSRNQFSLKLRSVTAADTAVYYCARGYSYGPFDYWGQGTLVTVSS
VL: EIVMTQSPATLSVSPGERATLSCRASQSVSSNLAWYQLKPGQAPRLLIYGASTRATGIPARFSGSGSGTEFTLTISSLQSEDFAVYYCHPYNNWPLTFGGGTKVEIK
For the molecule B1, the “blocking of the EPO/EPOR interaction” value in test [1] is given as “partial blocking”.

B2: EPORab - M71: hybridoma antibody clone, VH/VK in Table 10 (antibody, V domains shown)
VH: QVQLVESGAEVKKPRASVKVSCKTSGYTFTRHYMHWVRQAPGQGLEWMGIINPNNNSTSYAQKFQGRITMTRDTSTSTVYMELSSLRSEDTAVYYCARFRIVGTTLYFDYWGQGTLVTVSS
VL: B1 VL
For B2, the “blocking of the EPO/EPOR interaction” value in test [1] is “did not block”.

B3: EPORab - M52: hybridoma antibody clone, VH/VK in Table 10 (antibody, V domains shown)
VH: QLQLQESGPGLAKPSETLSLTCTVSGVSISSNSYYWGWIRQPPGKGLEWIGNIYHSGRTYYNPSLRSRVTISVDTSKNQFSLKLNSVTAADTAVYYCARGYSYGAFDYWGQGTLVTVSS
VL: DIQMTQSPSSLSASVGDRVTITCRASQGIRNDLGWYQQKPGKAPKRLIYAASSLQSGIPSRFSGSGSGTEFTLTISSLQPEDFATYYCLQHNNYPWTFGQGTKVEIK
Turning to B3, the “blocking of the EPO/EPOR interaction” value in test [1] is listed as “partial blocking”.

B4: EPORab - M19: hybridoma antibody clone, VH/VK in Table 10 (antibody, V domains shown)
VH: QLQLQESGPGLVKPSETLSLTCTVSGGSISSSNHYWGWIRQPPGKGLEWIGTLYYSGSTYYEPSLKSRVTISVDTSMNQFSLNLSSVTATDTAVYNCARGDRYGPFDYWGQGTLVTVSS
VL: B3 VL with Q3V, N31D, G41E, Y49C, I58V, H91Y, N93R
As to B4, in test [1], the “blocking of the EPO/EPOR interaction” value is given as “partial blocking”.

B5: EPORab - M24: hybridoma antibody clone, VH/VK in Table 10 (antibody, V domains shown)
VH: EVQLVESGGGLVKPGGSLRLSCAASGFTFTNAWMNWVRQAPGKGLEWIGRIKSKTAGETTDYAAPVKGRFTISRDDSKNTLYLQMNSLKTEDTAVYYCTTDPDYGDPYYYYYFMDVWGKGTTVTVSS
VL: DIQMTQSPSSLSASIGDRVTISCRASQSISSYLNWYQQKPGKAPKLLIYGASSLQSGVPSRFSGSGSGTDFTLTISSLQPEDFATYYCQQSYSLPLTFGGGTKVEIK
For B5, the “blocking of the EPO/EPOR interaction” value in test [1] is “partial blocking”.

B6: EPORab - M37: hybridoma antibody clone, VH/VK in Table 10 (antibody, V domains shown)
VH: QVQLQESGPGLVKPSGTLSLTCAVSGGSITTNNWWSWVRQSPGKGLEWIGEIYHSGNTNYNPSLKSRVTMSVDKSKNQFSLNLNSVIVADTAVYYCASALGTYYGAFDTWGQGTMVTVSA
VL: DIQMTQSPSSLSASVGDRVTITCRASQSISNYLNWYQQKPGKAPKLLIYAASSLQSGVPSRFSGSGSGTDFTLTISSLQPEDFTTYYCQQSYGTPYTFGQGAKLQIK
For the molecule B6, the “blocking of the EPO/EPOR interaction” value in test [1] was “did not block”.

B7: EPORab - M43: hybridoma antibody clone, VH/VK in Table 10 (antibody, V domains shown)
VH: QVQLQESGPGLVKPSGTLSLTCAVSGGSISSSNWWSWVRQPPGKGLEWIGEIYHSGSINYNPSLKSRVTISVDKSKNQFSLKLTSVTAADTAVYYCASALGNYYGAFDLWGQGTMVTVSS
VL: B6 VL with Q3V, S28T, N31S, Y49C, S56G, T84A, T85P, G93S, A102T, Q105E
B7: the “blocking of the EPO/EPOR interaction” value in test [1] was “did not block”.
